From PubChem BioAssay AID179 (DTP/NCI, 2004)
“And” between values parts separate entries of the source, which are not always exact repeats. Identical values can stand only once. The source made the active and inactive calls.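 How the source made its calls: active means compounds giving half or more protection of infected cells from virus-caused growth loss, again on retest; inactive means the rest.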 Where a SMILES comes first, the peptide text is derived from it. [ ]: non-standard residue; d: D form. Phe(4-Cl) = N[CH](Cc1ccc(Cl)cc1)C(=O)O; 3Pal = N[CH](Cc1cccnc1)C(=O)O

System: CEM cells HIV-1 protection, formazan growth assay
Assay: NCI AIDS Antiviral Assay
Settings: for IC50: measured here: growth of uninfected CEM cells
How it was run: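 Five concentrations of each compound were applied to infected and uninfected human CEM cells. Protection from HIV-1 was judged from growth measured with a soluble formazan assay.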

| Compound | EC50 | IC50 | outcome |
| --- | --- | --- | --- |
| CCOC(=O)C1SC(=Nc2ccc(Cl)cc2)N=C1C (stereo unspecified) | > 87.1 µM | > 87.1 µM | – |
| CC(=O)c1ccc(NC(=O)/C(Cc2ccccn2)=N/NC(=O)C[N+](C)(C)C)cc1 | – | – | inactive |
| CS(=O)(=O)OCCCSCCSCCCOS(C)(=O)=O | > 676 µM | > 676 µM | – |
| O=c1cc([O-])[n+](C2OC(CO)C(O)C2O)c2sccn12 (stereo unspecified) | > 63.1 µM | > 63.1 µM | – |
| CCN(CC)C1C=CCC2C1S(=O)(=O)C2(C)C (stereo unspecified) | > 977 µM | > 977 µM | – |
| Cc1nc(N)nn1C1OCC(O)C(O)C1O (stereo unspecified) | – | – | inactive |
| CC(C)(C)[Si](C)(C)OCC1OC(n2ccc(=O)[nH]c2=O)C(O[Si](C)(C)C(C)(C)C)C1CCN(O)CC1OC(n2ccc(=O)[nH]c2=O)C(O[Si](C)(C)C(C)(C)C)C1O[Si](C)(C)C(C)(C)C (stereo unspecified) | > 100 µM | > 100 µM | – |
| CC(=O)NNc1nc(C)c(C(=O)/C=C/c2cccc([N+](=O)[O-])c2)s1 | 70.8 µM | 75.9 µM | – |
| O=S(=O)(O)CCS(=O)(=O)O | > 200 µM | > 200 µM | – |
| O=C(O)c1c(Br)c(Br)c(Br)c(Br)c1C1c2ccc(O)cc2Oc2cc(O)ccc21 | 2.95 µM | 174 µM | – |
| COC(=O)/C(=N\Nc1nc(=S)[nH]n1N)C(C#N)c1ccccc1 (stereo unspecified) | > 178 µM | > 178 µM | – |
| COC(OC)C1(c2ccccc2)Oc2ccccc2C1=O (stereo unspecified) | > 166 µM | 81.3 µM | – |
| CCCCCCCCCCCC[N+]12CC[N+](CCN)(CC1)CC2 | > 251 µM | 56.2 µM | – |
| CC(=O)NC(Cc1ccc(Cl)cc1)C(=O)NC(Cc1ccc(Cl)cc1)C(=O)NC(Cc1cccnc1)C(=O)NC(CO)C(=O)NC(Cc1ccc(O)cc1)C(=O)NC(CCCN=C(N)N)C(=O)NC(CC(C)C)C(=O)NC(CCCN=C(N)N)C(=O)N1CCCC1C(=O)NC(C)C(=O)O (stereo unspecified) (Ac-[Phe(4-Cl)][Phe(4-Cl)][3Pal]SYRLRPA-OH; configuration not given here) | > 17 µM | > 17 µM | – |
| C=C1CN(S(=O)(=O)c2ccc(C)cc2)CCN(C(=O)OC(C)(C)C)CCN(S(=O)(=O)c2ccc(C)cc2)C1 | > 200 µM | 20 µM | – |
| O=C1CN2C(c3ccccc3)=NN(c3ccc([N+](=O)[O-])cc3)C2(c2ccccc2)c2cc(Cl)ccc2N1CC1CC1 (stereo unspecified) | > 100 µM | > 100 µM | – |
| O/N=C1/C(=C/c2ccccc2)CCCC1C(NO)c1ccccc1 (stereo unspecified) | > 81.3 µM | > 81.3 µM | – |
| Cc1[nH]n(C(=O)c2ccccc2O)c(=O)c1/C=C1\C(=O)C=Cc2ccccc21 | > 19.5 µM | 0.398 µM | – |
| CC1=C2C(=O)C(C)(C)C=C2C(=O)[C@](C)(O)C12CC2 | – | – | inactive |
| O=C(Cc1nc2ccc([N+](=O)[O-])cc2[nH]c1=O)C(=O)Nc1cc(Cl)c(Cl)cc1Cl | > 29.5 µM | 11.2 µM | – |
| CCOP(=O)(OCC)C(c1ccc(F)cc1)N(C(=O)NC(F)(F)F)c1ccc(F)cc1 (stereo unspecified) | > 200 µM | > 200 µM | – |
| Cc1ccc2c(C3Cc4ccccc4N3C(=O)/C=C\C(=O)O)c(C)[nH]c2c1 (stereo unspecified) | > 363 µM | 60.3 µM | – |

| Compound | EC50 | IC50 | outcome |
| --- | --- | --- | --- |
| O=C(CCl)N1CCN(C(c2ccccc2)c2ccccc2)CC1 | > 79.4 µM | 3.72 µM | – |
| C=C(C)CC1=C(OCC)C(OC)(OCC)C1=O (stereo unspecified) | > 200 µM | > 200 µM | – |
| CCOc1ccc2nc(NC(=O)c3c/c(=N\NC(=O)C[N+](C)(C)C)c4ccc(O)cc4o3)sc2c1 | > 178 µM | 2.24 µM | – |
| CCOC(CC(=O)NCCNC(C)=O)OCC | – | – | inactive |
| O=C(/C=N/O)Nc1ccc(Cl)c(I)c1 | > 79.4 µM | 64.6 µM | – |
| O=c1c2ccccc2nc(N/N=C/c2ccccc2O)n1-c1ccccc1 | > 200 µM | 1.48 µM | – |
| O=S(=O)(O)c1ccc(N=Nc2ccc(S(=O)(=O)O)cc2)cc1 | – | – | inactive |
| CC(C)(C)[Si](C)(C)OCC1OC(n2ccc(=O)[nH]c2=O)/C(=C\C#N)C1O[Si](C)(C)C(C)(C)C (stereo unspecified) | > 200 µM | 35.5 µM | – |
| CCOC(=O)c1c(C)c2c(n1C)CCc1cn[nH]c1-2 | > 191 µM | 126 µM | – |
| NC(CS)C(=O)O (stereo unspecified) | > 182 µM | > 182 µM | – |
| O=C(Nc1cc(Cl)cc(Cl)c1)/C(Cc1nc2ccccc2[nH]c1=O)=N/NC(=O)c1ccncc1 | > 132 µM | > 132 µM | – |
| O=NNc1ccc(S(=O)c2ccccc2)cn1 (stereo unspecified) | > 200 µM | > 200 µM | – |
| COC1(OC)CC(CO)(COc2cc(Cl)nc(N)n2)C1 | > 200 µM | > 200 µM | – |
| COc1cc2c(cc1OC)C13CCN4CC5=CCOC6CC(=O)N2C1C6C5C4C3 (stereo unspecified) (tested in a mixture with another compound) | > 209 µM | – | – |
| COc1cc2c(cc1OC)C(Cl)C(c1ccc(F)cc1)=C2Cl (stereo unspecified) | – | – | inactive |
| Cc1ccc([S@](=O)c2occc2C=O)cc1 | > 20 µM | 1.82 µM | – |
| CC(=O)NC(CC(C)C(=O)O)(C(=O)O)C(=O)O (stereo unspecified) | > 200 µM | > 200 µM | – |
| N#CC[P+](c1ccccc1)(c1ccccc1)c1ccccc1 | > 200 µM | 141 µM | – |
| COC1(CCO)CC=CCC1(CCO)OC (stereo unspecified) | > 200 µM | > 200 µM | – |
| Cc1cc2cc(Cl)ccc2nc1C(=O)c1ccccc1 | > 2.57 µM | > 2.57 µM | – |
| CCCc1cc(=O)[nH]c2c3c(c4c(c12)OC(C)(C)C=C4)O[C@H](C)[C@@H](C)[C@@H]3O | 0.12 µM | 2 µM | – |
| CC1=C[C@H]2c3c([nH]c4ccccc34)C(c3c[nH]c4ccccc34)[C@H]2CC1 (stereo partly specified) | – | – | inactive |

| Compound | EC50 | IC50 | outcome |
| --- | --- | --- | --- |
| COc1ccc(-c2cc(-c3cc(OC)c(OC)c(OC)c3)cc(-c3cc4ccccc4oc3=O)n2)cc1 | > 200 µM | 155 µM | – |
| N#Cc1c(N2CCCC2)nsc1Nc1ccc(F)cc1 | > 200 µM | > 200 µM | – |
| COc1ccc2cc3[n+](cc2c1OC)CCc1cc2c(cc1-3)OCO2 | > 339 µM | 6.76 µM and 3.31 µM | – |
| CC(C(=O)COCc1ccccc1)P1(=O)OC(C)(C)CN1C(C)(C)C (stereo unspecified) | > 200 µM | 132 µM | – |
| O=c1cc2[nH]cnc2c(O)[nH]1 | > 89.1 µM | > 89.1 µM | – |
| Cc1cccc(-c2cccc(COCc3cccc(-c4cccc(CO)n4)n3)n2)n1 | > 100 µM | 43.7 µM | – |
| COc1ccc2c3c([nH]c2c1)CCN(CCCC(=O)c1ccc(F)cc1)C3 | > 200 µM | 32.4 µM | – |
| Oc1ccc2c(c1)c1c(n2CCN2CCOCC2)-c2ccccc2CC1 | > 200 µM | 30.2 µM | – |
| OC1C(O)C2CC1C1C2C2(Cl)C(Cl)=C(Cl)C1(Cl)C2(Cl)Cl (stereo unspecified) | > 200 µM | 12.6 µM | – |
| CCCCCCCCCCCCCCCC(=O)NC(Cc1c[nH]c2ccccc12)C(=O)O (stereo unspecified) | > 200 µM | 50.1 µM | – |
| CC1=C2C(=CO[C@H](C)[C@H]2C)C(=O)C(C(=O)O)=C1O | > 145 µM | 25.1 µM | – |
| COc1ccc(C(c2c(O)c3ccccc3oc2=O)N2CCOCC2)cc1 (stereo unspecified) | > 200 µM | > 100 µM | – |
| CCOC(=O)/C(F)=C/c1cccc(F)c1 | > 170 µM | > 170 µM | – |
| O/N=C(\CC(O)(C(F)(F)F)C(F)(F)F)c1cccc(Cl)c1 | > 200 µM | 10.7 µM | – |
| CC(=O)C(C)[P+](c1ccccc1)(c1ccccc1)c1ccccc1 (stereo unspecified) | > 200 µM | 39.8 µM | – |
| C=C1OC2OC(C)C(NC(=O)OCC(Cl)(Cl)Cl)C(OC(C)=O)C2O1 (stereo unspecified) | > 234 µM | > 234 µM | – |
| CCCCCCCCCCCCCCCCOC1N(C2CC(N=[N+]=[N-])C(CO)O2)C(=O)NC(=O)[C@]1(C)Cl (stereo partly specified) | > 200 µM | 31.6 µM | – |
| CN1OC2CCC1CC(OC(c1ccccc1)c1ccccc1)C2 (stereo unspecified) | > 200 µM | > 200 µM | – |
| CC1CC2OC(/C=C/C=C/C=C/C=C\C=C\C(O)=C3/C(=O)C(C(C)C)N(C)C3=O)C(O)C2O1 (stereo unspecified) | > 200 µM | 107 µM | – |
| O=C1[O][Hg][c]2cccc3cccc1c23 | – | – | inactive |
| CCC(C#N)N(Cc1ccc(CN(C(=O)c2ccccc2)C(C#N)CC)cc1)C(=O)c1ccccc1 (stereo unspecified) | > 200 µM | 8.71 µM | – |
| CCOc1ccccc1NC(=O)C(=O)C(c1ccccc1)S(=O)(=O)Cc1ccccc1 (stereo unspecified) | > 200 µM | 120 µM | – |

| Compound | EC50 | IC50 | outcome |
| --- | --- | --- | --- |
| O=C(OC1(c2ccccc2)OC(=O)c2ccccc21)c1ccccc1C(=O)c1ccccc1 (stereo unspecified) | – | – | inactive |
| CC(=O)O[C@@H]1C(O)C=C2c3cc4c(c(O)c3C(=O)NC2[C@@H]1OC(C)=O)OCO4 (stereo partly specified) | – | – | inactive |
| O=c1[nH]c(=O)n2n1C1C=CC2CC1 | > 200 µM | > 200 µM | – |
| C=CC1=CC2(O[Si](C(C)C)(C(C)C)C(C)C)CCC1C(COCc1ccccc1)C2C(=O)O (stereo unspecified) | > 28.8 µM | 20 µM | – |
| CCC1([N+](=O)[O-])CN(N=O)C1 | > 200 µM | > 200 µM | – |
| CCOC(=O)C(NC(=O)Nc1ccccc1F)(OC)C(F)(F)F (stereo unspecified) | > 200 µM | > 200 µM | – |
| Cc1nnc2cc(C(=O)O)c3ccccc3n2c1=O | > 200 µM | > 200 µM | – |
| CCC(CCCC[C@@H]1CC[C@H]2CC(=O)C[C@@H]12)OC (stereo partly specified) | > 200 µM | 151 µM | – |
| CC1=C(c2cc(C(=O)Nc3cc(C)ccc3C)nc(N)n2)Sc2ccccc2N1 | > 12.9 µM | > 12.9 µM | – |
| CC(CO)/[N+]([O-])=N/O (stereo unspecified) | > 479 µM | – | – |
| CC(=O)N(C(C)=O)n1c(Cc2ccc(C)cc2)nn(C(C)=O)c1=O | > 200 µM | > 200 µM | – |
| COc1ccc2c(=O)c3c([nH]c2c1)OCC3=O | > 100 µM | > 100 µM | – |
| CCOC(=O)C1=C(O)CSC1=Nc1ccc(N=C2SCC(O)=C2C(=O)OCC)cc1 | – | – | inactive |
| C=C1C(=O)OC2CC(C)C3CC(O)OC(OCC)C3(C)CC12 (stereo unspecified) | > 83.2 µM | 15.5 µM | – |
| Cc1ccc(S(=O)(=O)OCC23CCC(CC2)C2CC23)cc1 (stereo unspecified) | > 100 µM | 70.8 µM | – |
| N#C/C(=C\c1cccc([N+](=O)[O-])c1)C(=O)c1ccccc1 | > 79.4 µM | 40.7 µM | – |
| Cc1ccc(S(=O)(=O)OCCOC(Cc2ccccc2)n2cc(C)c(=O)[nH]c2=O)cc1 (stereo unspecified) | > 200 µM | > 200 µM | – |
| Cc1ccc(/C=C/C(=O)c2sc(C(N)=S)nc2C)cc1 | > 85.1 µM | > 85.1 µM | – |
| NCCCCCCCCCCC(=O)O | 151 µM | > 200 µM | – |
| O=c1/c(=C/c2ccco2)sc2nc3ccccc3n12 | > 3.89 µM | > 3.89 µM | – |
| O=C(O)CCc1ccc2c(c1)CC1(Cc3ccccc3C1)C2 | > 200 µM | 102 µM | – |
